Data as given in patent US10660967B2, “Curcumin conjugates and methods of use thereof” (priority 2016, dated 2020).
Like-named read-outs stand apart in the source and are kept apart here.

Assays:
[1] = system: PHA-stimulated splenocytes; test: Proliferative response of PHA-stimulated splenocytes (MTT assay); format: cell-based; conditions: for Stimulation Index (average ± SD): PHA 5 μg/ml, 72 hr, compounds at 5 μM (method says 10 μM), ratio of O.D. versus vehicle control
Method: Immunomodulatory effects of the synthesized curcumin conjugates on the proliferative response of PHA-stimulated splenocytes were evaluated. The effect of curcumin and its amino acid conjugates on splenocyte viability and proliferation in response to a T cell miotgen (Phytohaemagglutinin; PHA) was evaluated using the MTT assay. Freshly prepared splenocytes (1×10^6 cells/200 μl/well) were cultured in a 96-well U-bottom microtiter plate (Nunc) in complete medium. Cells were treated with tested compounds at a final concentration of 10 μM, vehicle (DMSO) or left untreated in triplicate then incubated at 37° C. and 5% CO2. When testing the immunoregulatory effects of the compounds on splenocyte stimulation, PHA (5 μg/ml) was added to the culture media to induce T cell proliferation. The proliferative response to PHA+vehicle and vehicle alone served as controls. After 72 hr, media were removed after pelleting the cells by centrifugation and MTT salt solution (5 mg/ml) was added into each well then incubated at 37° C. for 4 h. Afterwards, formazan crystals were dissolved by adding 150 μl 10% sodium dodecyl sulfate (SDS). Absorbance was measured with a spectrophotometer at 570 nm and reference wavelength of 690 nm.
Splenocyte stimulation index was determined as the ratio of O.D. values in tested compounds versus vehicle control cultures.

[2] = system: Salmonella typhi ATCC19430; test: Antimicrobial MIC, agar dilution; format: cell-based; conditions: Salmonella enterica, read-out: Minimum inhibitory concentration (MIC)
[3] = system: Staphylococcus aureus ATCC25923; test: Antimicrobial MIC, agar dilution
[4] = system: lipopolysaccharide-stimulated peritoneal macrophages; test: Production of nitric oxide by lipopolysaccharide-stimulated peritoneal macrophages (Greiss reagent); format: cell-based; set-up: Potency (%): % inhibition of nitric oxide production relative to lipopolysaccharide-stimulated macrophages: concentration or dose not given beside the values; conditions: LPS-stimulated peritoneal macrophages; for Nitric oxide (nitrite) concentration, μM (average ± SD): 24 h, nitrite by Greiss reagent
Method: The effects of the synthesized curcumin conjugates on the production of nitric oxide (μM) by lipopolysaccharide-stimulated peritoneal macrophages were evaluated.
Two milliliters of macrophage cells were seeded in 12-well tissue culture plates in nitrite-free medium supplemented with 0.1% bovine serum albumin and incubated at 37° C. LPS±epinephrine, norepinephrine, or dopamine at […] concentrations was added to some wells. The concentrations of LPS used ranged from 0.5 to 10 ng/ml. After incubation for 24 h, supernatants were collected for measuring nitric oxide (NO) by spectrophotometry. The production of NO was determined from the accumulation of nitrite (NO2), the metabolic end product of NO metabolism, in the medium using the Greiss reagent. About equal volumes (100 μl) of sample and Greiss reagent (1:1 mixture of 1% sulfanilamide in 5% phosphoric acid, and 0.1% a-naphthylamine in distilled water) were mixed and incubated at room temperature for 15 min, and absorbance was measured at 532 nm on a spectrophotometer.

[5] = system: Candida albicans (local isolate); test: Antimicrobial MIC, agar dilution; conditions: Candida albicans, read-out: Minimum inhibitory concentration (MIC)
[6] = system: Streptococcus pyogenes ATCC19615; test: Antimicrobial MIC, agar dilution
[7] = system: Pseudomonas aeruginosa ATCC27853; test: Antimicrobial MIC, agar dilution
[8] = system: MCF7 (breast) carcinoma cell line; test: Anti-tumor properties, MTT; format: cell-based; conditions: Homo sapiens, 72 h; for activity at 100 µM: MCF7, 100 μM, read-out: Percentage growth of tumor cell lines treated with the tested compounds (±SD)
Method: (§1) Anti-tumor properties of curcumin conjugates were evaluated. The synthesized curcumin-amino acid conjugates and curcumin itself were screened for their antitumor properties against human tumor cell lines utilizing HepG2 (hepatocellular), MCF7 (breast), and HCT116 (colon) carcinoma cell lines by the standard mitochondrial dependent reduction of yellow MTT [3-(4,5-dimethylthiazol-2-yl)-2,5-diphenyl-tetrazolium bromide] to purple formazan technique. Cancer cells were obtained from the Egyptian Company for Production of Vaccines, Sera and Drugs (VACSERA), Cairo, Egypt. Media, chemicals and supplies for the bio-assay were obtained from Biowest, Gibco and Lonza Companies. Cells were suspended in RPMI-1640 medium for HepG2, DMEMF12 for MCF-7, and DMEM for HCT116 in addition to 1% antibiotic-antimycotic mixture (10 […] potassium penicillin, 10 […] streptomycin sulfate and […] amphotericin B), 10% fetal bovine serum and 1% L-glutamine at 37° C., under 5% CO2 and 95% humidity. Cells were seeded at a concentration of 10×10^3 cells per well in fresh complete growth medium in 96-well tissue culture microtiter plates for 24 h. Media was aspirated, 180 μL fresh medium (without serum) were added and cells were incubated with different concentrations of sample to give a final concentration of 100 μM. 0.5% DMSO was used as a negative control and doxorubicin was used as a positive control (standard reference). Triplicate wells were prepared for each individual tested compound/dose. After 72 h of incubation, the medium was aspirated, 40 μL MTT salt (2.5 mg ml^1) were added to each well and incubated for an additional 4 h at 37° C. To stop the reaction and dissolve the formed crystals, 200 μL of 10% sodium dodecyl sulfate (SDS) in deionized water were added to each well and incubated overnight at 37° C. The absorbance was then measured at 595 nm with a reference wavelength of 620 nm. Data were collected as mean values for experiments performed in triplicates for each compound which had been measured by MTT assay.
(§2) The percentage of cell survival was calculated according to equation (4): […]
(§3) The IC50 was determined using Graph-Pad PRISM version-5 software. Statistical calculations for determination of the mean and standard deviation (SD) values were determined by SPSS 16 software.

[9] = system: HepG2 (hepatocellular) carcinoma cell line; test: Anti-tumor properties, MTT; format: cell-based; conditions: Homo sapiens, 72 h; for activity at 100 µM: HepG2, 100 μM, read-out: Percentage growth of tumor cell lines treated with the tested compounds (±SD)
Method: as §1, §2, §3

[10] = system: HCT116 (colon) carcinoma cell line; test: Anti-tumor properties, MTT; format: cell-based; conditions: Homo sapiens, HCT-116, 72 h; for activity at 100 µM: HCT116, 100 μM, read-out: Percentage growth of tumor cell lines treated with the tested compounds (±SD)
Method: as §1, §2, §3

[11] = system: MCF-7 cells; test: Effect on doxorubicin induced cytotoxicity (MTT); conditions: for viability at 100 µM: read-out: Percentage of viable cells MCF-7 (average ± SD)
Method: The effects of curcumin conjugates on doxorubicin induced cytotoxicity were evaluated. In order to further examine whether curcumin derivatives can enhance conventional chemotherapeutic agents, MCF-7 cells were treated with 100 μM curcumin derivatives alone or in combination with 10 μM doxorubicin (DOX) for 48 hr. Control cultures received only medium, vehicle (DMSO), or vehicle+DOX. The percentage of viable cells was determined by MTT assay according to equation (5): […]

[12] = ATCC25923, 18 h, read-out: Minimum inhibitory concentration (MIC)
[13] = ATCC25923, read-out: Minimum inhibitory concentration (MIC)
[14] = ATCC19615, 18 h, read-out: Minimum inhibitory concentration (MIC)
[15] = ATCC19615, read-out: Minimum inhibitory concentration (MIC)
[16] = ATCC27853, 18 h, read-out: Minimum inhibitory concentration (MIC)
[17] = ATCC27853, read-out: Minimum inhibitory concentration (MIC)
[18] = 10 μM DOX in combination with 100 μM curcumin derivative, 48 hr

SMILES | Stimulation Index (average ± SD) [1] | MIC ([2]; 18 h) | MIC [2] | MIC [3, 12] | MIC [3, 13] | Potency (%): % inhibition of nitric oxide production relative to lipopolysaccharide-stimulated macrophages [4] | Nitric oxide (nitrite) concentration, μM (average ± SD) [4] | MIC ([5]; 18 h) | MIC [5] | MIC [6, 14] | MIC [6, 15] | MIC [7, 16] | MIC [7, 17] | activity at 100 µM [8] | activity at 100 µM [9] | activity at 100 µM [10] | Percentage of viable cells MCF-7 (average ± SD) [11, 18] | viability at 100 µM ([11]; Homo sapiens, MCF7, 48 h) | further results
COc1cc(/C=C/C(=O)CC(=O)/C=C/c2ccc(OC(=O)[C@H](C)NC(=O)OCc3ccccc3)c(OC)c2)ccc1OC(=O)[C@H](C)NC(=O)OCc1ccccc1 [Cbz-Ala-Cur, ((1E,6E)-3,5-dioxohepta-1,6-diene-1,7-diyl)bis(2-methoxy-4,1-phenylene) (2S,2′S)-bis(2-(((benzyloxy)carbonyl)amino)propanoate)] | 2.70 ± 0.25 | 0.5 µg/mL | 0.642 µM | 0.25 µg/mL | 0.321 µM | 8.86% | 24.89 ± 1.65 µM | 2 µg/mL | 2.57 µM | 0.125 µg/mL | 0.161 µM | 2 µg/mL | 2.57 µM | 70 ± 4.1% | 82.3 ± 4.2% | 86.6 ± 6.2% | 46.65 ± 2.06 | 99.5 ± 4.47% | –
COc1cc(/C=C/C(=O)CC(=O)/C=C/c2ccc(OC(=O)CNC(=O)OCc3ccccc3)c(OC)c2)ccc1OC(=O)CNC(=O)OCc1ccccc1 [Cbz-Gly-Cur, ((1E,6E)-3,5-dioxohepta-1,6-diene-1,7-diyl)bis(2-methoxy-4,1-phenylene) bis(2-(((benzyloxy)carbonyl)amino)acetate)] | 2.64 ± 0.10 | 0.5 µg/mL | 0.666 µM | 0.125 µg/mL | 0.166 µM | 10.11% | 24.55 ± 0.66 µM | 0.5 µg/mL | 0.666 µM | 0.125 µg/mL | 0.166 µM | 1 µg/mL | 1.33 µM | 60 ± 2.7% | 79.8 ± 8.8% | 88.1 ± 2.6% | 45.44 ± 1.88 | 97.4 ± 5.3% | –
COc1cc(/C=C/C(=O)CC(=O)/C=C/c2ccc(OC(=O)[C@H](CC(C)C)NC(=O)OCc3ccccc3)c(OC)c2)ccc1OC(=O)[C@H](CC(C)C)NC(=O)OCc1ccccc1 [Cbz-Leu-Cur, ((1E,6E)-3,5-dioxohepta-1,6-diene-1,7-diyl)bis(2-methoxy-4,1-phenylene) (2S,2′S)-bis(2-(((benzyloxy)carbonyl)amino)-4-methylpentanoate)] | 2.83 ± 0.17 | 0.25 µg/mL | 0.29 µM | 0.125 µg/mL | 0.145 µM | 4.57% | 26.06 ± 0.65 µM | 0.5 µg/mL | 0.579 µM | 0.125 µg/mL | 0.145 µM | 0.125 µg/mL | 0.145 µM | 85.7 ± 1.2% | 85.1 ± 5.7% | 94.7 ± 5.8% | 50.17 ± 4.94 | 98.2 ± 3.44% | –
COc1cc(/C=C/C(=O)CC(=O)/C=C/c2ccc(OC(=O)[C@H](Cc3ccccc3)NC(=O)OCc3ccccc3)c(OC)c2)ccc1OC(=O)[C@H](Cc1ccccc1)NC(=O)OCc1ccccc1 [Cbz-Phe-Cur, ((1E,6E)-3,5-dioxohepta-1,6-diene-1,7-diyl)bis(2-methoxy-4,1-phenylene) (2S,2′S)-bis(2-(((benzyloxy)carbonyl)amino)-3-phenylpropanoate)] | 2.91 ± 0.13 | 0.125 µg/mL | 0.134 µM | 0.125 µg/mL | 0.134 µM | 3.60% | 26.33 ± 0.52 µM | 2 µg/mL | 2.15 µM | 0.125 µg/mL | 0.134 µM | 0.25 µg/mL | 0.269 µM | 69.3 ± 3% | 99.6 ± 8.7% | 96.4 ± 4% | 43.40 ± 4.74 | 105 ± 4.5% | splenocyte proliferation, fold relative to untreated control cells ([1]; in the presence of PHA, text of b265): 3.81 fold
COc1cccc2c1C(=O)c1c(O)c3c(c(O)c1C2=O)C[C@@](O)(C(=O)CO)C[C@@H]3O[C@H]1C[C@H](N)[C@H](O)[C@H](C)O1 [DOX, doxorubicin, reference compound] | – | – | – | – | – | – | – | – | – | – | – | – | – | – | – | – | – | – | IC50 ([8]; MCF7, MTT, read-out: IC50): 20.9 µM; IC50 ([9]; HepG2, MTT, read-out: IC50): 34.2 µM; IC50 ([10]; HCT116, MTT, read-out: IC50): 7.17 µM; viability at 10 µM ([11]; Homo sapiens, MCF7, 48 h, read-out: Percentage of viable cells MCF-7 (average ± SD), 10 μM DOX in combination with 100 μM curcumin derivative, 48 hr): 44.8%; Percentage of viable cells MCF-7 (average ± SD) ([11]; human, 48 h, 100 μM): 0 ± 0.00
